Measurements reported in US9840513B2 (AbbVie S.à.r.l., priority 2015, dated 2017).

Tests used:
[1] = target: T1, F508delCFTR in primary hBE cells with F508del/F508del CFTR mutation (Homo sapiens, UniProt P13569, DEL508-508); test: Transepithelial Clamp Circuit on Human Bronchial Epithelial Cells Conductance Assay (hBE-TECC); assay type: cell-based; conditions: for EC50: primary hBE cells F508del/F508del, 18-24 hours at 37° C., equivalent short circuit current, 6 concentrations
T1 construct: cells isolated from CF patients with the homozygous mutation; endogenous in cells; host or cells: primary human bronchial epithelial (hBE) cells from F508del/F508del CF patients
Excerpt: Transepithelial Clamp Circuit on Human Bronchial Epithelial Cells Conductance Assay:
A cell based assay using the primary human bronchial epithelial cells (hBE) was used as a secondary assay to test novel F508delCFTR correctors for their activity on primary hBE cells with F508del/F508del CFTR mutation. The assay used a TECC-24 (Transepithelial Clamp Circuit for 24 wells) instrument that measures the functionality of the mutated channel by measuring the equivalent short circuit current (Ieq) generated by the polarized epithelial cells. The instrument works by measuring the transepithelial potential difference (Vt) and transepithelial resistance (Rt) in an open circuit format, and the Ieq is calculated by using Ohms law (Ieq=Vt/Rt). The assay was run in a 24-well format and all 24-wells were measured at the same time point giving a higher throughput for this assay.
Primary human bronchial epithelial (hBE) cells from F508del/F508delCFTR patients were expanded from 1×10^6 to 250×10^6 cells (Neuberger T, Burton B, Clark H and VanGoor F; Cystic Fibrosis, Methods in Mole Biol 741; eds. Amaral M D and Kunzelmann K, 2011). For this purpose, cells isolated from CF patients with the homozygous mutation were seeded onto 24 well Corning (Cat #3378) filter plates that were coated with 3T3 conditioned media and grown at an air-liquid interface for 35 days using an Ultroser® G supplemented differentiation media. Apical surface mucus was removed 72 hours before the experiment using 3 mM dithiothreitol (DTT) in phosphate buffered saline (PBS). The apical surface was washed again 24 hours before the experiment using PBS. The cells were incubated with the desired dose response of the corrector compounds 18-24 hours at 37° C., 5% CO2. The corrector compounds are only added on the basolateral side of the epithelial cells.
On the day of measuring the corrector activity on the TECC, the cells were switched into a bicarbonate and serum free F-12 Coon's medium and allowed to equilibrate for 90 minutes in a CO2 free incubator. At the time of measurement, the apical and basolateral sides of the filter were bathed with the F-12 Coon's modification media (with 20 mM 4-(2-hydroxyethyl)-1-piperazineethanesulfonic acid (HEPES), pH 7.4 (using 1 M tris(hydroxymethyl)aminomethane (Tris)), and the measurements were made at 36.5° C. Transepithelial voltage (Vt) and transepithelial resistance (Rt) were measured using a 24 channel transepithelial current clamp (TECC-24). Current responses to the sequential addition of benzamil (apical 6 μM addition; for inhibiting epithelial ENaC channel), forskolin (apical and basolateral 10 μM addition; for activating the CFTR channel), control potentiator (N-(3-carbamoyl-5,5,7,7-tetramethyl-4,7-dihydro-5H-thieno[2,3-c]pyran-2-yl)-1H-pyrazole-5-carboxamide; apical and basolateral […] addition; for potentiating the CFTR channel) and bumetanide (basolateral 20 μM addition; for inhibiting the Na:2Cl:K co-transporter, an indirect measure of inhibiting the Cl-secretion driven by CFTR channel) were measured.
All plates contained negative controls (dimethyl sulfoxide, DMSO) which coupled with the control potentiator (N-(3-carbamoyl-5,5,7,7-tetramethyl-4,7-dihydro-5H-thieno[2,3-c]pyran-2-yl)-1H-pyrazole-5-carboxamide) sets the null response and positive controls (3 μM of 3-[(2R,4R)-4-({[1-(2,2-difluoro-1,3-benzodioxol-5-yl)cyclopropyl]carbonyl}amino)-7-methoxy-3,4-dihydro-2H-chromen-2-yl]benzoic acid) coupled with the control potentiator sets the 100% response to measure the correction of the mutated CFTR channel. The maximum percent activity is reported relative to the positive control value.
The % activity measured at each of the 6 test concentrations of the test compound was normalized to the on-plate positive control using the following formula: % activity=[[…]]*100 […]

[2] = target: T2, F508delCFTR cell surface expression in CFBE41o-F508delCFTR-HRP cells (Homo sapiens, UniProt P13569, DEL508-508); test: Cell Surface Expression-Horse Radish Peroxidase (CSE-HRP) Assay; assay type: cell-based; conditions: for EC50: CFBE41o-F508delCFTR-HRP cells, 18-24 hours at 33° C., 8-point curve, highest concentration 20 μM; for Maximum % activity (%): maximum at any tested concentration, normalized to on-plate positive control (3 μM)
T2 construct: fused on or other part: Horseradish peroxidase (HRP) reporter inserted in the fourth exofacial (extracellular) loop of CFTR; expression is doxycycline-inducible
In short: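 CFBE41o- cells with HRP-tagged F508delCFTR, expression induced by 0.5 μg/mL doxycycline for 72 h at 37 °C, then compound for 18-24 h at 33 °C (8-point, 3-fold, top 20 μM). Surface HRP measured by luminol luminescence; % activity normalised to 3 μM positive-control corrector; EC50 from variable-slope sigmoidal fit, three replicate plates.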

[3] = relative to positive control (3 μM) coupled with control potentiator

T1 sequence (P13569 with tags, fused parts or gaps DEL508-508): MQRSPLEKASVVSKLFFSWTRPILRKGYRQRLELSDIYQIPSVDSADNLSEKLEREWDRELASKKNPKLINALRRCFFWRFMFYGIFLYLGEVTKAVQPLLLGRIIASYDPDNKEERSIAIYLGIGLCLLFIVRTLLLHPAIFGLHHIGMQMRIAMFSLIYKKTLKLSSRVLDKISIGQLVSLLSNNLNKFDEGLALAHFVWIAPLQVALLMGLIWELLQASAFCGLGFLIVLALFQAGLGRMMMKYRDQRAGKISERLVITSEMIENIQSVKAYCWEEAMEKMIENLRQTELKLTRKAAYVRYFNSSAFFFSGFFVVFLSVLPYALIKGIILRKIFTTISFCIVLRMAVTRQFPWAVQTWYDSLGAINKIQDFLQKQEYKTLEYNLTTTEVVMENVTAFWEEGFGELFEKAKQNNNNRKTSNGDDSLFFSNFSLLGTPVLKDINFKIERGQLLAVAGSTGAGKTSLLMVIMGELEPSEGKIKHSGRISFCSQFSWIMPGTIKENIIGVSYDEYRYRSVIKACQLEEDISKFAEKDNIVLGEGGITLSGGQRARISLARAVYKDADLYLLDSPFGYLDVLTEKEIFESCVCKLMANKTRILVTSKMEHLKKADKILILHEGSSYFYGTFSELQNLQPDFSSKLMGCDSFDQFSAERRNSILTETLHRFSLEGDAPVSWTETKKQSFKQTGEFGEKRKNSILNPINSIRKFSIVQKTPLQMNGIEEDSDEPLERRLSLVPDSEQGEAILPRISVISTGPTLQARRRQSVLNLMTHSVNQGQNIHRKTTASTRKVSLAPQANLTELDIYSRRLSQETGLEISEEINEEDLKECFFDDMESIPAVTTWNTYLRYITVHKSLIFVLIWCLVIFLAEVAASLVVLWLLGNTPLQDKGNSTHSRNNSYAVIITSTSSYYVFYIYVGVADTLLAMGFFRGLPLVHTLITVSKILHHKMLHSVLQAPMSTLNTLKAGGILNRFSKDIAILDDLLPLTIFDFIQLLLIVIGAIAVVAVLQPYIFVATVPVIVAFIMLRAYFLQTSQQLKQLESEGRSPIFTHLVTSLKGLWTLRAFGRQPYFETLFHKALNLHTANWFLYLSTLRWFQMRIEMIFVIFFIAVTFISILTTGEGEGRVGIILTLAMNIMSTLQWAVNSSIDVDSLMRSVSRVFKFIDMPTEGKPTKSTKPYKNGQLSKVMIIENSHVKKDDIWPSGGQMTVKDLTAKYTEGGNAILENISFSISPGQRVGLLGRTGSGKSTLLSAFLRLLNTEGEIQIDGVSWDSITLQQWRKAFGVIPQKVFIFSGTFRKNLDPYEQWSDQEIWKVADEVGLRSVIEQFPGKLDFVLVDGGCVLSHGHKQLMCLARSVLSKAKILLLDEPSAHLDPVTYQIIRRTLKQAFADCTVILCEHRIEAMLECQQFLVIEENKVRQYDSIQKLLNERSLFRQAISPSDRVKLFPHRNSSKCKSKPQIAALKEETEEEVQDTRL
T2 sequence (P13569 with tags, fused parts or gaps DEL508-508 limits assumed): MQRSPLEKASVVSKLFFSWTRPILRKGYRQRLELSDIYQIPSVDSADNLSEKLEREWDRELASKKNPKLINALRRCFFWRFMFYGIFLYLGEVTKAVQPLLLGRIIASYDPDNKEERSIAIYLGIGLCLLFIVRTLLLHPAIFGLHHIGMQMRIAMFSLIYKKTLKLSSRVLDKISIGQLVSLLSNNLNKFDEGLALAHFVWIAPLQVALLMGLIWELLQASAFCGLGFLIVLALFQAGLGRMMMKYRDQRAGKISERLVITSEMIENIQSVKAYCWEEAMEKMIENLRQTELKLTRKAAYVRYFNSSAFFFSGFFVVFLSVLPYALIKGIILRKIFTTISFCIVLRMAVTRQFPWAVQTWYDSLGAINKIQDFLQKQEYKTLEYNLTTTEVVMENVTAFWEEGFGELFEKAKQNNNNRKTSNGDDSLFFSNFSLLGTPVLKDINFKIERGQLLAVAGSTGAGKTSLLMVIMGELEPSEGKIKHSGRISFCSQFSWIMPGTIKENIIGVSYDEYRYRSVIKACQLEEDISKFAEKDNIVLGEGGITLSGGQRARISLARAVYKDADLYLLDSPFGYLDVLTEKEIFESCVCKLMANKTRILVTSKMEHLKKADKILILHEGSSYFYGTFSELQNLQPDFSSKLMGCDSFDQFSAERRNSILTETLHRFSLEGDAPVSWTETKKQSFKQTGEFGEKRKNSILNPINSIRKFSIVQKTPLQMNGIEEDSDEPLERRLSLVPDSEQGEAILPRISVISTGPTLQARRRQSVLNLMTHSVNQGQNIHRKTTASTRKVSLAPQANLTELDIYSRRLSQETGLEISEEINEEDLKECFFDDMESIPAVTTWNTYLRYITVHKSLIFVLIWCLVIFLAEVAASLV
T2 sequence (P13569 919-1480 limits assumed, stated change not applied): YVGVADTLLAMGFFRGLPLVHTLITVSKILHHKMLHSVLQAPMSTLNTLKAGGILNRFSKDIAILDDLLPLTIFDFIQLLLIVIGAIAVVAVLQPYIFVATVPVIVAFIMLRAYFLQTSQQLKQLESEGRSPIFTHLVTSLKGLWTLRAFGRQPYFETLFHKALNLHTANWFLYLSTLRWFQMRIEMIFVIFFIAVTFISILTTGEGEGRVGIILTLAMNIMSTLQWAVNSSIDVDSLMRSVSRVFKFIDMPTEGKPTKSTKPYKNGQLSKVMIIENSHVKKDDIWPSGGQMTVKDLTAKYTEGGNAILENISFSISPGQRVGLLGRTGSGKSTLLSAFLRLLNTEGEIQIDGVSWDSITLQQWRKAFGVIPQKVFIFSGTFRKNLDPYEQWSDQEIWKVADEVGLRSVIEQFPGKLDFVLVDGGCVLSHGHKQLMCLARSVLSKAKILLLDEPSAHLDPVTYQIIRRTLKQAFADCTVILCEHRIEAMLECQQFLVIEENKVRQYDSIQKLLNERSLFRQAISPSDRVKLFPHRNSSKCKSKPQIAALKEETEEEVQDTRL

| SMILES | EC50 [1] [nM] | Maximum % activity (%) [1, 3] [%] | EC50 [2] [nM] | Maximum % activity (%) [2] [%] | Maximum % activity (%) ([1]; testing concentration 10 μM) |
| --- | --- | --- | --- | --- | --- |
| C[C@]1(C(=O)Nc2cc3cc(C4(CO)COC4)n(C[C@@H](O)CO)c3cc2F)COc2cc3c(cc21)OC(F)(F)O3 [Example 135, (7R)—N-{1-[(2R)-2,3-dihydroxypropyl]-6-fluoro-2-[3-(hydroxymethyl)oxetan-3-yl]-1H-indol-5-yl}-2,2-difluoro-7-methyl-6,7-dihydro-2H-furo[2,3-f][1,3]benzodioxole-7-carboxamide] | 2700 | 62 | 2560 | 58 | – |
| CC1(C(=O)Nc2cc(-c3ccccc3)nn(C[C@@H](O)CO)c2=O)COc2cc3c(cc21)OC(F)(F)O3 (stereo partly drawn) [Example 25, N-{2-[(2R)-2,3-dihydroxypropyl]-3-oxo-6-phenyl-2,3-dihydropyridazin-4-yl}-2,2-difluoro-7-methyl-6,7-dihydro-2H-furo[2,3-f][1,3]benzodioxole-7-carboxamide] | – | – | 1160 | 82 | 61 |
| CC1(c2cc3cc(NC(=O)[C@@]4(C)COc5cc6c(cc54)OC(F)(F)O6)c(F)cc3n2C[C@@H](O)CO)COC1 [Example 171, (7R)—N-{1-[(2R)-2,3-dihydroxypropyl]-6-fluoro-2-(3-methyloxetan-3-yl)-1H-indol-5-yl}-2,2-difluoro-7-methyl-6,7-dihydro-2H-furo[2,3-f][1,3]benzodioxole-7-carboxamide] | 352 | 45 | 660 | 92 | – |
| Cc1ccc(NC(=O)[C@]2(C)CCc3c2ccc2c3OCO2)cc1-c1cccc(C(=O)O)c1 (single isomer, unassigned) [Example 37] | 564 | 70 | 730 | 83 | – |

The next molecules have a lower EC50 [2] than those just listed; values first:

| EC50 [1] [nM] | Maximum % activity (%) [1, 3] [%] | EC50 [2] [nM] | Maximum % activity (%) [2] [%] | Maximum % activity (%) ([1]; testing concentration 10 μM) | SMILES |
| --- | --- | --- | --- | --- | --- |
| 199 | 103 | 290 | 157 | – | Cc1ccc(NC(=O)[C@@]2(C)COc3cc4c(cc32)OC(F)(F)O4)nc1-c1cccc(C(=O)O)c1 [Example 6, 3-(6-{[(7R)-2,2-difluoro-7-methyl-6,7-dihydro-2H-furo[2,3-f][1,3]benzodioxole-7-carbonyl]amino}-3-methylpyridin-2-yl)benzoic acid] |
| 11 | 84 | 30 | 129 | – | C[C@]1(C(=O)N[C@@H]2C[C@H](C3(C(=O)O)CC3)Oc3cc(OC(F)(F)F)ccc32)COc2cc3c(cc21)OC(F)(F)O3 [Example 166, 1-[(2R,4R)-4-{[(7R)-2,2-difluoro-7-methyl-6,7-dihydro-2H-furo[2,3-f][1,3]benzodioxole-7-carbonyl]amino}-7-(trifluoromethoxy)-3,4-dihydro-2H-1-benzopyran-2-yl]cyclopropane-1-carboxylic acid] |
| 1 | 95 | 20 | 135 | – | COc1ccc2c(c1)O[C@@H](c1cnc(N3C[C@@H](O)[C@H](O)C3)cn1)C[C@H]2NC(=O)[C@@]1(C)COc2cc3c(cc21)OC(F)(F)O3 [Example 250, (7R)—N-[(2R,4R)-2-{5-[(3R,4R)-3,4-dihydroxypyrrolidin-1-yl]pyrazin-2-yl}-7-methoxy-3,4-dihydro-2H-1-benzopyran-4-yl]-2,2-difluoro-7-methyl-6,7-dihydro-2H-furo[2,3-f][1,3]benzodioxole-7-carboxamide] |
